In the assay the target is T1, ABCG2 (breast cancer resistance protein, BCRP) (Homo sapiens, UniProt Q9UNQ0).
T1 construct: wild-type ABCG2 (R482) in overexpressing cell membranes
T1 sequence (Q9UNQ0 1-655): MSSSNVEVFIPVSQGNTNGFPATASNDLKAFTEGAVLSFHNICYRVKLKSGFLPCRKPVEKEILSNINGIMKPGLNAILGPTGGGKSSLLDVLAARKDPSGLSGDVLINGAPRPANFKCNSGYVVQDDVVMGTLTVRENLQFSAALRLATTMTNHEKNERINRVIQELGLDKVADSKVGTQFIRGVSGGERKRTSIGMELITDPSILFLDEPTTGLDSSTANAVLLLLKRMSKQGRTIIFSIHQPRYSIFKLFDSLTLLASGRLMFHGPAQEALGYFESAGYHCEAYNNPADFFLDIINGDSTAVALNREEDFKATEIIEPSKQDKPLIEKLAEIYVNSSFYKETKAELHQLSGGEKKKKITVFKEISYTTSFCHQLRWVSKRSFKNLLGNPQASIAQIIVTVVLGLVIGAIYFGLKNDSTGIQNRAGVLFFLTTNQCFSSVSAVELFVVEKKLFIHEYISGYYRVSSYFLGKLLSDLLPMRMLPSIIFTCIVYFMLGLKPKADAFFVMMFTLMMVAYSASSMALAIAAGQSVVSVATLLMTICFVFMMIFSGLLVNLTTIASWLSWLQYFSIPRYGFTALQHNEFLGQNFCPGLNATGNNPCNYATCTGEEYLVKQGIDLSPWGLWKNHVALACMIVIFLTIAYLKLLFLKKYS
The experiment in a line: vanadate-sensitive ATPase assay in ABCG2-overexpressing cell membranes; [3H]-mitoxantrone accumulation and efflux in cells. It is filed as biochemical.

A word on the IC50: it is the concentration at which inhibition is half-maximal. Read a low IC50 as higher potency. In turn, `CC1(C)CCC(CN2CCN(c3ccc(C(=O)NS(=O)(=O)c4ccc(NCC5CCOCC5)c([N+](=O)[O-])c4)c(Oc4cnc5[nH]ccc5c4)c3)CC2)=C(c2ccc(Cl)cc2)C1` [venetoclax] yielded an IC50 of 4.78 µM. This counts as single-digit micromolar.

Source of the values: article PMC7072352, “Venetoclax, a BCL-2 Inhibitor, Enhances the Efficacy of Chemotherapeutic Agents in Wild-Type ABCG2-Overexpression-Mediated MDR Cancer Cells” (Cancers, 2020).
